Assay results: PMC6218659, “Structures of DPAGT1 Explain Glycosylation Disease Mechanisms and Advance TB Antibiotic Design” (Cell, 2018)

Columns and labels:
[1] = biological target: T1, DPAGT1 Arg301His (Homo sapiens, UniProt Q9H3H5, R301H); assay: Thermostability assay (label free differential scanning fluorimetry); assay type: binding, H. sapiens; conditions: 50 μM compound
T1 construct: combined with the LIC-adapted primers to amplify the complete DPAGT1 gene, including the desired mutations; 6xHis purification tag with TEV site (N, cleaved yes); made in house; host or cells: Spodoptera frugiperda Sf9 insect cells (baculovirus)
T1 sequence (Q9H3H5 1-408 R301H): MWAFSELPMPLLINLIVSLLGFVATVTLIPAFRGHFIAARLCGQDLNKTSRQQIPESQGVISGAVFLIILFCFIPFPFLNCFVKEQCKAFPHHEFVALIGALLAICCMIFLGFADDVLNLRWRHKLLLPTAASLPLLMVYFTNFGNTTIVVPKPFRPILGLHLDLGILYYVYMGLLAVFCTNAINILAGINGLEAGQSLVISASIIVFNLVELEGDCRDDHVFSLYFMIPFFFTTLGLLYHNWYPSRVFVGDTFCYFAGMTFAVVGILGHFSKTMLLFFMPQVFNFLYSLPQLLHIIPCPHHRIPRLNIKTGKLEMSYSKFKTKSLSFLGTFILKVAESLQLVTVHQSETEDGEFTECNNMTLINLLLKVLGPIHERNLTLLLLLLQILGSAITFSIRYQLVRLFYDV
Method: (§1) Samples with a volume of 40 μl were prepared containing 0.5 mg/ml protein and 50 μM compound or 5% DMSO in GFB. A glass capillary was dipped into each sample, with the capillary held horizontally to ensure that the capillary was full of the sample. The capillaries were placed on the capillary holder on the Nanotemper Prometheus. Technical triplicates of each sample were prepared, and each experiment was conducted with biological triplicates of each protein. PR.ThermControl software was used to run the experiment and analyse the data. A melting curve from 20 °C – 95 °C at 5 °C/min was performed. The minimum of the first derivative of the 330/350nm ratio was used to determine the Tm1/2.

[2] = biological target: T2, DPAGT1 Tyr170Cys (Homo sapiens, UniProt Q9H3H5, Y170C); assay: as above; assay type: binding, H. sapiens; conditions: 50 μM compound
T2 construct: combined with the LIC-adapted primers to amplify the complete DPAGT1 gene, including the desired mutations; 6xHis purification tag with TEV site (N, cleaved yes); made in house; host or cells: Spodoptera frugiperda Sf9 insect cells (baculovirus)
T2 sequence (Q9H3H5 1-408 Y170C): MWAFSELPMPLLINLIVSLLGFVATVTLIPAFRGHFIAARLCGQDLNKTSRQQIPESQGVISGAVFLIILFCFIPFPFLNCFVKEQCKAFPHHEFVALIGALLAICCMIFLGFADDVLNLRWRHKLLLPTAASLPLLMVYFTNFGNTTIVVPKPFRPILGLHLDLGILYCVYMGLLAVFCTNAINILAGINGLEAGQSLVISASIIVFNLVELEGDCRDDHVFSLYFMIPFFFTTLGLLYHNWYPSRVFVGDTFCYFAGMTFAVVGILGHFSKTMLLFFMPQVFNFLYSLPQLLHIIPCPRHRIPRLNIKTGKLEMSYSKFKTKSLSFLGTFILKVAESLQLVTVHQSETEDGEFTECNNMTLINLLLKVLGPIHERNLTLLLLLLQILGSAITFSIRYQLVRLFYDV
Method: as §1

[3] = biological target: T3, DPAGT1 Leu168Pro (Homo sapiens, UniProt Q9H3H5, L168P); assay: as above; assay type: binding, H. sapiens; conditions: 50 μM compound
T3 construct: combined with the LIC-adapted primers to amplify the complete DPAGT1 gene, including the desired mutations; 6xHis purification tag with TEV site (N, cleaved yes); made in house; host or cells: Spodoptera frugiperda Sf9 insect cells (baculovirus)
T3 sequence (Q9H3H5 1-408 L168P): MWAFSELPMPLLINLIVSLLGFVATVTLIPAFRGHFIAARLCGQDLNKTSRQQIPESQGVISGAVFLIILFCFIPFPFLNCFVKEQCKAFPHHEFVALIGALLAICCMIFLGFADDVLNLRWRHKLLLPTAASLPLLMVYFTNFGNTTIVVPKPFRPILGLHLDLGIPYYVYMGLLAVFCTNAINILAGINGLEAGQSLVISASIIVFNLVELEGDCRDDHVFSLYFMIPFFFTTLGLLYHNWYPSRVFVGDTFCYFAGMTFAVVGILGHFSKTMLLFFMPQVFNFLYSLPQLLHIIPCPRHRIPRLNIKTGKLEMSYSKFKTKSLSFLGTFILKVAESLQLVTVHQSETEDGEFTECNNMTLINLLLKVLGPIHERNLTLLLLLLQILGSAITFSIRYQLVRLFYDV
Method: as §1

[4] = biological target: T4, DPAGT1 Arg301Cys (Homo sapiens, UniProt Q9H3H5, R301C); assay: as above; assay type: binding, H. sapiens; conditions: 50 μM compound
T4 construct: combined with the LIC-adapted primers to amplify the complete DPAGT1 gene, including the desired mutations; 6xHis purification tag with TEV site (N, cleaved yes); made in house; host or cells: Spodoptera frugiperda Sf9 insect cells (baculovirus)
T4 sequence (Q9H3H5 1-408 R301C): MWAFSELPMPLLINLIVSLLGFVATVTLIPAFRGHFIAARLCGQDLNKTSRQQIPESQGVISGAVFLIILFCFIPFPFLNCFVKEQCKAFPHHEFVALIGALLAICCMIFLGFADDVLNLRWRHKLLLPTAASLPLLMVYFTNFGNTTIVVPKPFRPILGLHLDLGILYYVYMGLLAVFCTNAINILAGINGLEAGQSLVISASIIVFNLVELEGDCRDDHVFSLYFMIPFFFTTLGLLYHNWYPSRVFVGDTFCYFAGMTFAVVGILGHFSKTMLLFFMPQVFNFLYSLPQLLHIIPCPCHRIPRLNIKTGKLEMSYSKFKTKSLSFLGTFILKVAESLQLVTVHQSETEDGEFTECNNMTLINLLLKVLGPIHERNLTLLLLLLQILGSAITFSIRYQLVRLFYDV
Method: as §1

[5] = biological target: T5, DPAGT1 WT (Homo sapiens, UniProt Q9H3H5); assay: as above; assay type: binding, H. sapiens; conditions: 50 μM compound
T5 construct: H. sapiens DPAGT1 (1-408, N-terminal 6 x HIS tag, TEV cleavage site); 6xHis purification tag with TEV site (N, cleaved yes); made in house; host or cells: Spodoptera frugiperda Sf9 insect cells (baculovirus)
T5 sequence (Q9H3H5 1-408): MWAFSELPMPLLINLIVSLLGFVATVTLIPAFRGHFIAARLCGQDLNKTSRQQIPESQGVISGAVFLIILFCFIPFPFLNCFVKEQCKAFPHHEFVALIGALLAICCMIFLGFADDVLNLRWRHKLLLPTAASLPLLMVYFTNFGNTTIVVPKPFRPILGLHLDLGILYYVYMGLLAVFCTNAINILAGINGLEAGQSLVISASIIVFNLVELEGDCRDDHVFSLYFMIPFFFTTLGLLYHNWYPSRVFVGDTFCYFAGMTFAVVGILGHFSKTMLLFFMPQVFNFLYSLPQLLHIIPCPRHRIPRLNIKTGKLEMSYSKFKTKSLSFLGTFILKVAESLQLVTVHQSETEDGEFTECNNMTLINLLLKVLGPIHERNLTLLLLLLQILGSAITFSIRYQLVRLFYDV
Method: as §1

[6] = biological target: T6, DPAGT1 Val264Gly (Homo sapiens, UniProt Q9H3H5, V264G); assay: as above; assay type: binding, H. sapiens; conditions: 50 μM compound
T6 construct: H. sapiens DPAGT1 (1-408, Val264Gly, N-terminal 6 x HIS tag, TEV cleavage site); 6xHis purification tag with TEV site (N, cleaved yes); made in house; host or cells: Spodoptera frugiperda Sf9 insect cells (baculovirus)
T6 sequence (Q9H3H5 1-408 V264G): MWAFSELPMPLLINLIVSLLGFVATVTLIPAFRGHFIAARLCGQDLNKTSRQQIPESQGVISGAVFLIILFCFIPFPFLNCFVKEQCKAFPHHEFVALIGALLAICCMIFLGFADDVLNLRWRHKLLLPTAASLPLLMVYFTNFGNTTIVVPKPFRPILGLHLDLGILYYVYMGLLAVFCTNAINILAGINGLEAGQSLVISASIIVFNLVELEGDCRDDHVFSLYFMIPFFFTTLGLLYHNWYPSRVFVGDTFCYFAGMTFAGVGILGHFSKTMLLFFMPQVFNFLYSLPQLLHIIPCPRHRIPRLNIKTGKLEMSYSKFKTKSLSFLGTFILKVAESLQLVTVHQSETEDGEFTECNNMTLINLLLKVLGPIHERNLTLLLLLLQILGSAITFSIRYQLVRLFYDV
Method: as §1

[7] = biological target: T7, DPAGT1 (Homo sapiens, UniProt Q9H3H5); assay: Radiolabeled substrate enzyme activity assay; assay type: biochemical, H. sapiens; conditions: WT DPAGT1, non-titrated substrate at 200 μM
T7 construct: H. sapiens DPAGT1 (1-408, N-terminal 6 x HIS tag, TEV cleavage site); 6xHis purification tag with TEV site (N, cleaved yes); made in house; host or cells: Spodoptera frugiperda Sf9 insect cells (baculovirus)
T7 sequence (Q9H3H5 1-408): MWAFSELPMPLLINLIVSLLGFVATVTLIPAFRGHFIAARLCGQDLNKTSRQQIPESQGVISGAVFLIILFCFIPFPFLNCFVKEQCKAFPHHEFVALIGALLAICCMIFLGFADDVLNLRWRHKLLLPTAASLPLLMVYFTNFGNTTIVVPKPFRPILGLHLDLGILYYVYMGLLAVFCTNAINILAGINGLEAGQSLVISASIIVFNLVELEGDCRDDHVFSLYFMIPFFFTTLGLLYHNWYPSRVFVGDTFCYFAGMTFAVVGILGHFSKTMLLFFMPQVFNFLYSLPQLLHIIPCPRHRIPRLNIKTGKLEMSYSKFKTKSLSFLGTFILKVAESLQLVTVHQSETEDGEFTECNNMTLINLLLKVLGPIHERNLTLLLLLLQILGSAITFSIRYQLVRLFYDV
Method: 2 μl of 2 μM DPAGT1 WT or mutant proteins in GFB buffer supplemented with 5mM extra MgCl2, 1% OGNG/CHS/cardiolipin and dolichyl monophosphate was combined with 2 μl of UDP-N-acetyl [1-14C] […] The reaction was terminated by the addition of 6 μl of 100% methanol and immediately transferred onto ice. 1 μl of sample was spotted onto a silica coated TLC plate in triplicate and run with a mobile phase consisting of chloroform, methanol, and water at a 65:25:4 ratio respectively. After the run, the TLC plate was dried thoroughly, wrapped in cling film, incubated with a phosphor imaging substrate for 4 days, then phosphor imaged using a Biorad. The pixel density of the spots corresponding to the hydrophobic product was divided by combined pixel density of the product and the substrate and multiplied by the known concentration of substrate added to ascertain the amount of product formed.

Compound | Thermostability (Tm1/2) with added compound [1] | Thermostability (Tm1/2) with added compound [2] | Thermostability (Tm1/2) with added compound [3] | Thermostability (Tm1/2) with added compound [4] | Thermostability (Tm1/2) with added compound [5] | Thermostability (Tm1/2) with added compound [6] | kcat [7] | Km ([7]; read-out: apparent Km)
dolichyl phosphate [Dol-P] | 56.2±1.2 °C | 54.0±1.0 °C | 52.5±0.3 °C | 56.4±0.5 °C | 58.5 °C | 57.2±0.2 °C | 0.20 ± 0.012 min⁻¹ | 36.3 ± 7.2 µM
CC(=O)NC1C(OP(=O)(O)OP(=O)(O)OCC2OC(n3ccc(=O)[nH]c3=O)C(O)C2O)OC(CO)C(O)C1O (centres unmarked) [UDP-GlcNAc, UDP-N-acetyl glucosamine] | 52.4±1.0 °C | 54.0±0.8 °C | 53.8±1.1 °C | 52.5±0.6 °C | 55.1±0.4 °C | 54.6±0.4 °C | – | –
